Laboratory results reported in patent publication US20230303547A1, “N-CYANOPYRROLIDINES WITH ACTIVITY AS USP30 INHIBITORS” (MISSION THERAPEUTICS LIMITED, priority 2020, published 2023).
Values after ≈ are worked out from the molar mass of the structure shown.

What was measured:
Turbidimetric solubility = format: physicochemical; details: aqueous buffer, kinetic from dmso stock
Source text: The solubility of a compound is an important factor in achieving a desired concentration of drug in systemic circulation for the anticipated pharmacological response. Low aqueous solubility is a problem encountered with formulation development of new chemical entities and to be absorbed a drug must be present in the form of solution at the site of absorption. The kinetic solubility of a compound may be measured using a turbidimetric solubility assay, the data from which may also be used in conjunction with Caco-2 permeability data to predict dose dependent human intestinal absorption.
Turbidimetric solubility: Test compound solution prepared in DMSO diluted into aqueous buffer. Turbidimetry is used as the end-point by measuring absorbance at 620 nm.

[1] = system: HCT116 human colorectal carcinoma cells; assay: In vitro cytotoxicity (Cell Tox), alamarBlue; format: cell-based; details: 96-hour continual compound exposure
Source text: There is also a need for compounds that have a favourable safety profile, which may be measured by a variety of standard in vitro and in vivo methods. A cell toxicity counter-screen may be used to assay the anti-proliferative/cytotoxic effect in a particular cell line (e.g. HCT116) by fluorometric detection of rezasurin (alamarBlue™) to resofurin in response to mitochondrial activity.
In Vitro Cytotoxicity (Cell Tox): Measured in HCT116 human colorectal carcinoma cells using alamarBlue™ as the assay endpoint. Compound cytotoxicity was measured over a period of 96-hour continual compound exposure.

Hepatocyte Cl mouse = format: in vitro ADME; details: mouse hepatocytes
Experimental: Hep Cl mouse: in vitro hepatocyte clearance in mouse cells.
(§1) Clu: in vitro clearance. Clu as defined here is the scaled clearance, in turn calculated from the intrinsic clearance. The intrinsic clearance is the predicted clearance due to hepatic metabolic reactions, determined from incubation of a compound in a hepatocyte preparation.

UCHL1 = UCHL1 (Homo sapiens (Human), UniProt P09936); assay: UCHL1 DUB IC50; format: biochemical
Chain of UCHL1 (P09936 whole entry, species assumed): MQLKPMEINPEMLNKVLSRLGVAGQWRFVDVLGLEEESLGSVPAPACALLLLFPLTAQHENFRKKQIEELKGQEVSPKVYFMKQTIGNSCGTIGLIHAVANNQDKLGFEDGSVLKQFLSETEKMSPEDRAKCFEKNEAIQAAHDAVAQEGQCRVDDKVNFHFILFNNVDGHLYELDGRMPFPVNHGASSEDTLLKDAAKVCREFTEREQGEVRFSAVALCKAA

Cathepsin B = Cathepsin B (Homo sapiens (Human), UniProt P07858); assay: Cathepsin B IC50; format: biochemical
[2] = Plasma free fraction by equilibrium dialysis; format: in vitro ADME; details: mouse plasma; read-out: Binding Mouse Plasma fu,p
Source text: Plasma fu,p: The free fraction of a compound in plasma preparation determined by in vitro equilibrium dialysis.

Mouse plasma stability = format: in vitro ADME; details: read-out: Stability Mouse plasma t½
Source text: Other parameters that may be measured using standard assays that are indicative of a compound’s exposure profile include, for example plasma stability (half-life measurement), blood AUC, Cmax, Cmin and Tmax values.

Cathepsin L = Cathepsin L (Homo sapiens (Human), UniProt P07711); assay: Cathepsin L IC50; format: biochemical
Chain of Cathepsin L (P07711 114-333, species assumed): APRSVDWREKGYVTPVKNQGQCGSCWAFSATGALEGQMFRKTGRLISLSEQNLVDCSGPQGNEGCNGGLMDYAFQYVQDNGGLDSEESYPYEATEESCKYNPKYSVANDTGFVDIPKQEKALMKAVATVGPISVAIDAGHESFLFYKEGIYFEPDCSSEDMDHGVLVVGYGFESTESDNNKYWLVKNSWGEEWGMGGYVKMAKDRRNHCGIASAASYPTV

PK mouse 2 mg/kg iv = format: in vivo; details: for Kp uu: brain and plasma (unbound), 2 mg/kg IV dose - mouse; for clearance: plasma, mouse, 2 mg/kg iv, read-out: Cl plasma
Source text: Cl in vivo clearance: Pharmacokinetic measurement of the volume of plasma (or any matrix) from which a substance is completely removed per unit time.
Kpuu is the ratio of unbound drug in brain to unbound drug in plasma and may be indicative of potential for treating peripheral and/or CNS indications.

TOM20 ubiquitylation = assay: TOM20-ubiquitylation assay; format: cell-based, human
Source text: (§2) USP30 is a transmembrane protein located in the outer membrane of mitochondria, which are energy-producing organelles present inside cells. […] The USP30 cellular western blot (WB) assay described herein aims to test the activity of compounds against USP30 in cells using an irreversible activity probe to monitor USP30 activity. Analogously to the cellular western blot assay, target engagement assessment (ex vivo) may be carried out in either brain or kidney tissue samples from compound-dosed animals. To extend target binding knowledge to downstream pharmacodynamics, assessment of TOM20 (an outer mitochondrial membrane protein) ubiquitylation may be made.
Human cell lines can be challenged with mitochondrial depolarizing agents (ionophores (eg. CCCP, valinomycin), mitochondrial complex inhibitors (oligomycin, antimycin A)) to induce ubiquitylation of TOM20, which is then further promoted in the presence of USP30 inhibitors. TOM20 ubiquitylation is subsequently assessed through western blotting of the cell lysates, with TOM20 ubiquitylation adduct detection possible due to an 8 kDa molecule weight increase for each molecule of ubiquitin added, resulting in laddering of a TOM20 immunoreactive band. TOM20-ubiquitylation levels can be quantified using chemiluminescence densitometry of laddered immunoreactive bands.

Hepatocyte Cl human = format: in vitro ADME; details: human hepatocytes
Experimental: Hep Cl human: in vitro hepatocyte clearance in human cells.
as §1

[3] = Brain homogenate free fraction by equilibrium dialysis; format: in vitro ADME; details: mouse brain homogenate; read-out: Binding Mouse Brain fu,br
Source text: Brain fu,br: The free fraction of a compound in brain homogenate preparation determined by in vitro equilibrium dialysis.

Log D = format: physicochemical; details: pH 7.4; read-out: Log D measured at pH 7.4
Source text: log D: distribution co-efficient; lipophilicity measurement.

Cathepsin V = Cathepsin V (Homo sapiens (Human), UniProt O60911); assay: Cathepsin V IC50; format: biochemical
Chain of Cathepsin V (O60911 114-334, species assumed): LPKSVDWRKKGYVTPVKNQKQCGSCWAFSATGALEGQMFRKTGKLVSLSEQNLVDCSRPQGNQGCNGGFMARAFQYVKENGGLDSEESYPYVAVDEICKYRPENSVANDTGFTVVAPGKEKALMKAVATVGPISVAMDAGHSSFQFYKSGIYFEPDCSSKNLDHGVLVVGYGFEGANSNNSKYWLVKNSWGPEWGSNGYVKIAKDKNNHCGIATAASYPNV

Endogenous USP30 = Endogenous USP30 (Homo sapiens (Human), UniProt Q70CQ3); assay: USP30 endogenous cellular target engagement assay (Cell TE WB); format: cell-based; details: Hela cells stably overexpressing YFP-Parkin, 1 hour
Chain of Endogenous USP30 (Q70CQ3 whole entry): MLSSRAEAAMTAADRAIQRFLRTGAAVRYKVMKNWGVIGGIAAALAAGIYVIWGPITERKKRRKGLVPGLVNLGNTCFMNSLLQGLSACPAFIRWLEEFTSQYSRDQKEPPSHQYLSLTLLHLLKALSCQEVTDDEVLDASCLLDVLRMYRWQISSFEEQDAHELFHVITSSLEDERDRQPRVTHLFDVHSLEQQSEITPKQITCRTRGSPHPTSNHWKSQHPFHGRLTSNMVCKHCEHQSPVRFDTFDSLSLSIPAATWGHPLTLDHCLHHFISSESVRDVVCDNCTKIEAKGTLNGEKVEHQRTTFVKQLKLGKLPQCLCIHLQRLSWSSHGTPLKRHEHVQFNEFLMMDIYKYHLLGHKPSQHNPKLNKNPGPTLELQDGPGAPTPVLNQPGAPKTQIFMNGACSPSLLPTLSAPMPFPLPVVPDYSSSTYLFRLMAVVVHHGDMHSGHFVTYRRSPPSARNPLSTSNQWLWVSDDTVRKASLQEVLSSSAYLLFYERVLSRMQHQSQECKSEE
Source text: as §2
Hela cells stably overexpressing YFP-Parkin were seeded into 6 well dishes. Once adhered, cells were treated with appropriate concentrations of test compounds or vehicle control for 1 hour at 37° C., 5% CO2. […] USP30 was detected using an anti-USP30 Sheep S746D antibody (MRC PPU Reagents and Services) and a rabbit anti sheep secondary IgG (H+L) horseradish peroxidase conjugated (Thermo #31480) and visualised using ECL reagent (GE #RPN2109) on a GE LAS4000 imager. Target engagement was measured by quantitation of the bands corresponding to USP30 and USP30 bound to the Ub-VME probe and expression of this proportion compared to vehicle treated control.

Cathepsin K = Cathepsin K (Homo sapiens (Human), UniProt P43235); assay: Cathepsin K IC50; format: biochemical
Chain of Cathepsin K (P43235 115-329, species assumed): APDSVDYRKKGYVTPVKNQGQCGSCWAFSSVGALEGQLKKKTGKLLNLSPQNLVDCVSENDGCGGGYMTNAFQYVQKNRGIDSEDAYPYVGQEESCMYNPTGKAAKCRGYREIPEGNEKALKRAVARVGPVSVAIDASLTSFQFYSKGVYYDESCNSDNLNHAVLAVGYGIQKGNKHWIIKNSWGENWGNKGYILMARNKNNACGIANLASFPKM

| SMILES | solubility (Turbidimetric solubility) [µM] | EC50 [1] [µM] | EC50 ([1]; Homo sapiens, HCT-116, 96 h) [µM] | Hepatocyte Cl mouse Scaled Clu (Hepatocyte Cl mouse) [mL/min/kg] | IC50 (UCHL1) [µM] | IC50 (Cathepsin B) [µM] | fraction unbound [2] | half-life (Mouse plasma stability) [h] | IC50 (Cathepsin L) [µM] | Kp uu (PK mouse 2 mg/kg iv) | clearance (PK mouse 2 mg/kg iv) [mL/min/kg] | TOM20-Ub 1.5-fold gain, Antimycin A/oligomycin mitophagy trigger EC1.5x (TOM20 ubiquitylation) [µM] | Hepatocyte Cl human Scaled Clu (Hepatocyte Cl human) [mL/min/kg] | fraction unbound [3] | logD (Log D) | IC50 (Cathepsin V) [µM] | EC50 (Endogenous USP30) [µM] | IC50 (Cathepsin K) [µM] |
| --- | --- | --- | --- | --- | --- | --- | --- | --- | --- | --- | --- | --- | --- | --- | --- | --- | --- | --- |
| COC[C@@H]1C[C@@H](NC(=O)c2ncc(-c3cc(C#N)ccc3OC3CC3)o2)CN1C#N [Example 2, 5-(5-cyano-2-cyclopropoxyphenyl)-N-((3R,5S)-1-cyano-5-(methoxymethyl)pyrrolidin-3-yl)oxazole-2-carboxamide] | > 100 | > 30 | 27.1 | 105 | > 300 | > 300 | 0.07 | > 2 | 23.6 | 0.01 | 20 | 0.007 | 5.0 | 0.2 | 2.2 | 60.6 | 0.003 | 18.9 |
| C[C@@H]1C[C@@H](NC(=O)c2ncc(-c3cc(C#N)ccc3OC3CC3)o2)CN1C#N [Example 1, 5-(5-cyano-2-cyclopropoxyphenyl)-N-((3R,5R)-1-cyano-5-methylpyrrolidin-3-yl)oxazole-2-carboxamide] | 65 (≈ 24.5 µg/mL) |  | 23.8 | 117 | > 300 | 107 | 0.09 | > 2 | 9.9 | 0.02 | 41 | 0.006 | 18.6 | 0.06 | 2.5 | 30.9 | 0.002 | 10.5 |
